# Laboratory results as given in publication PMC8691200 (Journal of Chemical Information and Modeling, 2021).
# “Also recorded” adds a separate entry of the source.
# Legend:
# [1] = system: SARS-CoV-2; conditions: Vero E6 cells; cited from earlier work
# [2] = system: SARS-CoV-2 MEX-BC2/2020 strain; type: cell-based
# [3] = system: Vero E6 cells
# [4] = system: SARS-CoV-2; conditions: Vero E6 cells, real-time polymerase chain reaction; cited from earlier work
smiles,measurement,setting,value
C=C[C@@]1(C)CC(=O)[C@]2(O)[C@@]3(C)[C@@H](O)CCC(C)(C)[C@@H]3[C@H](OC(=O)CCN(C)C)[C@H](OC(C)=O)[C@@]2(C)O1.Cl [NKH477],CPE (% efficacy),[1],45%
CC1=C[C@]23C(=O)[C@@H](C=C(CO)[C@@H](O)[C@]2(O)[C@H]1O)[C@H]1[C@@H](C[C@H]3C)C1(C)C [ingenol],CPE (% efficacy),[1],38.2%
CC(CN(C)C)CN1c2ccccc2CCc2ccccc21 (centres unmarked) [trimipramine],CPE (% efficacy),[1],48%
COc1ccc2cc1Oc1ccc(cc1)C[C@H]1c3c(cc4c(c3Oc3cc5c(cc3OC)CCN(C)[C@@H]5C2)OCO4)CCN1C [Cepharanthine],CPE (% efficacy),[1],92%
N#C[C@@]1(c2ccc3c(N)ncnn23)O[C@H](CO)[C@@H](O)[C@H]1O [GS-441524],maximum % inhibition observed,[2],100%
same,prevention of virus-induced CPE,[2],prevented completely the virus-induced CPE; also recorded: completely prevented the virus-induced CPE
"CCOC(=O)c1c(CSc2ccccc2)n(C)c2cc(Br)c(O)c(CN(C)C)c12 [Compound 1, Arbidol]",compound precipitation or recrystallization in micrographs,"25 μM, 96 h incubation with infected cells",no observed compound precipitation or recrystallization
same,aqueous solubility,solubilized in DMSO or buffer (for salts),good aqueous solubility
same,cytotoxicity in viability assays,[3],dose-dependent trend of cytotoxicity
same,safety ratio,[3]; African green monkey,2.3
same,maximum inhibition of virus entry,[4],70%
